Reference: US20050101595A1, “N-containing cycloalkyl-substituted amino-thiazole derivatives and pharmaceutical compositions for inhibiting cell proliferation and methods for their use” (PFIZER INC., priority 2003, published 2005)
Where a name gives a salt, the structure may show the parent alone. Read-outs that look alike come from different tables or passages of the source.

Key:
CDK2/Cyclin A = CDK2/Cyclin A (Homo sapiens, UniProt P24941); experiment: Inhibition of CDK2/Cyclin A Retinoblastoma Kinase Activity; type: biochemical; conditions: for Ki: apparent Ki, CDK2/proteolyzed cyclin A, Rb fragment substrate, 25 μM ATP; for CDK2 % Inhibition At 0.03 μM: Table 2
Outline: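 Percent inhibition is calculated against DMSO-only wells after subtracting no-enzyme background. The enzyme is human CDK2 complexed with proteolyzed cyclin A, used at 10 nM or 19 nM on an Rb fragment with 25 μM [32/33P]ATP, at pH 7.4 and 30° C.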

[1] = target: human CDK4 and genetically truncated (1-264) cyclin D3 (Homo sapiens, UniProt P11802); experiment: Inhibition of CDK4/Cyclin D Retinoblastoma Kinase Activity; type: biochemical; conditions: for Ki: apparent Ki, CDK4/truncated cyclin D3, Rb fragment substrate, 25 μM ATP
Outline: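 Apparent Ki values derive from fitting activity at varied inhibitor concentrations to a competitive (or competitive tight-binding) model. Kinase reactions used 5 nM CDK4/cyclin D3(1-264), Rb fragment substrate and 25 μM ATP. Incubation ran 20 min at 30 °C, extended to 60 min under linear conditions for tight binders.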

HCT-116 cell line = experiment: Inhibition of cell growth, tetrazolium salt (MTT) assay; type: cell-based; conditions: for HCT-116 % Inhibition at 0.25 μM: 0.25 μM compound; for IC50: Homo sapiens, HCT-116, 120 h, MTT, three to five days, read-out: HCT-116 IC50
Outline: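 First, cells were seeded in McCoy's 5A medium and held 4 h. Next, inhibitor concentrations in 0.5% (v/v) DMSO were applied for three to five days at 37° C, 5% CO2. Finally, after 4 h with 0.2 mg/mL MTT and medium removal, solubilized formazan was measured at 540 nm.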

[2] = 0.1 μM compound, HCT-116, Table 3

Sequence of human CDK4 and genetically truncated (1-264) cyclin D3 (P11802 whole entry, the tested form may be a part): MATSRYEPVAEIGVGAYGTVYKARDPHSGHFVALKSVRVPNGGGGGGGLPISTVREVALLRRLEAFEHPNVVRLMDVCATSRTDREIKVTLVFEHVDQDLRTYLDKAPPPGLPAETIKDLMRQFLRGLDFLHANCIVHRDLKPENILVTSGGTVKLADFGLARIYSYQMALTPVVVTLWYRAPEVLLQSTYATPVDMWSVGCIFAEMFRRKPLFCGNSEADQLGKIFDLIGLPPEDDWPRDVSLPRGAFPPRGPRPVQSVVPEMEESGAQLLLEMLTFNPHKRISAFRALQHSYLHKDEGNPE
Sequence of human CDK4 and genetically truncated (1-264) cyclin D3 (P30281 1-264 partner): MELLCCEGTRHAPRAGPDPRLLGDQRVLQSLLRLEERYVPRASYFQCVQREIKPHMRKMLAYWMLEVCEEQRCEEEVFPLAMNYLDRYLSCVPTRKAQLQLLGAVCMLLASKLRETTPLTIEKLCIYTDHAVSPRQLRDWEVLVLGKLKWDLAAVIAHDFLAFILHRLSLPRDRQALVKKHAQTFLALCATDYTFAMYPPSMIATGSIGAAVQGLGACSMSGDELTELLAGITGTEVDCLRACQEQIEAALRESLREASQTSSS

Row | CDK2 % Inhibition at 0.03 μM (CDK2/Cyclin A; at 0.03 μM) [%] | CDK4 % Inhibition at 0.03 μM ([1]; at 0.03 μM) [%] | Ki (CDK2/Cyclin A) [µM] | Ki [1] [µM] | IC50 (HCT-116 cell line; first HCT-116 column (c4)) [µM] | IC50 (HCT-116 cell line; second HCT-116 column (c5)) [µM] | Structure (SMILES) | HCT-116 % Inhibition at 0.1 μM (HCT-116 cell line; HCT-116 cells, at 0.1 μM) [%] | HCT-116 5 Inhibition at 0.25 μM (HCT-116 cell line; HCT-116 cells) | further results
1 | −73 | 2 | – | – | – | – | Nc1nc(NC2CCN(C(=O)c3cccnc3Sc3ccc(Cl)cc3)CC2)sc1C(=O)c1c(F)cccc1F [Example R43] | 4 | 46 | –
2 | 21 | 38 | – | – | – | – | Nc1nc(NC2CCN(C(=O)C34CC5CC(CC(C5)C3)C4)CC2)sc1C(=O)c1c(F)cccc1F [Example R54] | 0 | 39 | –
3 | 24 | 30 | – | – | – | – | Nc1nc(NC2CCN(C(=O)c3c(Cl)cccc3Cl)CC2)sc1C(=O)c1c(F)cccc1F [Example R110] | 3 | 48 | –
4 | 24 | 44 | – | – | – | – | CCCCCc1ccc(C(=O)N2CCC(Nc3nc(N)c(C(=O)c4c(F)cccc4F)s3)CC2)cc1 [Example R158] | 0 | 41 | –
5 | 41 | 72 | – | – | – | – | CC(C)(C)c1cc(C(=O)N2CCC(Nc3nc(N)c(C(=O)c4c(F)cccc4F)s3)CC2)n(Cc2ccccc2)n1 [Example R58] | 5 | 44 | –
6 | 22 | 40 | – | – | – | – | Nc1nc(NC2CCN(C(=O)CNc3ccc(O)cc3)CC2)sc1C(=O)c1c(F)cccc1F [Example R169] | 0 | 39 | –
7 | 20 | 49 | – | – | – | – | COc1ccc(C(=O)N2CCC(Nc3nc(N)c(C(=O)c4c(F)cccc4F)s3)CC2)cc1 [Example R148] | 0 | 42 | –
8 | 53 | 66 | – | – | – | – | COc1ccc(OC)c(C(=O)N2CCC(Nc3nc(N)c(C(=O)c4c(F)cccc4F)s3)CC2)c1 [Example R117] | 7 | 45 | –
9 | 14 | 36 | – | – | – | – | CC(Oc1ccccc1)C(=O)N1CCC(Nc2nc(N)c(C(=O)c3c(F)cccc3F)s2)CC1 (stereo not shown) [Example R159] | 0 | 46 | –

More lines, now with the values behind:

Row | Structure (SMILES) | CDK2 % Inhibition at 0.03 μM (CDK2/Cyclin A; at 0.03 μM) [%] | CDK4 % Inhibition at 0.03 μM ([1]; at 0.03 μM) [%] | Ki (CDK2/Cyclin A) [µM] | Ki [1] [µM] | IC50 (HCT-116 cell line; first HCT-116 column (c4)) [µM] | IC50 (HCT-116 cell line; second HCT-116 column (c5)) [µM] | HCT-116 % Inhibition at 0.1 μM (HCT-116 cell line; HCT-116 cells, at 0.1 μM) [%] | HCT-116 5 Inhibition at 0.25 μM (HCT-116 cell line; HCT-116 cells) | further results
10 | N#Cc1ccc(S(=O)(=O)N2CCC(Nc3nc(N)c(C(=O)c4c(F)cccc4F)s3)CC2)c(Cl)c1 [Example P71] | – | – | – | – | – | – | – | – | CDK2 % Inhibition at 0.03 μM (CDK2/Cyclin A; 0.03 μM compound, Table 3): 57%; CDK4 % Inhibition at 0.03 μM ([1]; 0.03 μM compound, Table 3): 52%; HCT-116 % Inhibition at 0.1 μM (HCT-116 cell line; [2]): 13%; HCT-116 % Inhibition at 0.25 μM (HCT-116 cell line; HCT-116, Table 3): 21%
11 | C[C@@H]1CN(Cc2ccc(S(=O)(=O)N3CCC(Nc4nc(N)c(C(=O)c5c(F)cccc5F)s4)CC3)cc2)C[C@H](C)N1 [Example J10, 1-{4-Amino-2-{1-[4-(3,5-dimethyl-piperazin-1-ylmethyl)-benzenesulfonyl]-piperidin-4-ylamino}-thiazol-5-yl)-1-(2,6-difluoro-phenyl)-methanone Hydrochloride Salt.] | – | – | 0.0017 | 0.00039 | 0.16 | 2.9 | – | – | –
12 | CC1CCC(C)N1CCS(=O)(=O)N1CCC(Nc2nc(N)c(C(=O)c3c(F)cccc3F)s2)CC1 (mixture of isomers) [Example K26, (4-Amino-2-{1-[2-(cis/trans-2,5-dimethyl-pyrrolidin-1-yl)-ethanesulfonyl]-piperidin-4-ylamino}-thiazol-5-yl)-(2,6-difluoro-phenyl)-methanone Trifluoroacetic Acid Salt.] | – | – | 0.013 | 0.0021 | 0.19 | 0.8 | – | – | –
13 | Nc1nc(NC2CCN(C(=O)Nc3ccccc3C(F)(F)F)CC2)sc1C(=O)c1c(F)cccc1F [Example O10] | – | – | – | – | – | – | – | – | CDK2 % Inhibition At 0.03 μM (CDK2/Cyclin A; 0.03 μM compound): 28%; CDK4 % Inhibition at 0.03 μM ([1]; 0.03 μM compound, Table 2): 5%; HCT-116 % Inhibition at 0.25 μM (HCT-116 cell line; HCT-116, Table 2): 0%
14 | Nc1nc(NC2CCN(S(=O)(=O)c3ccc(O)c(C(=O)O)c3)CC2)sc1C(=O)c1c(F)cccc1F [Example P58] | – | – | – | – | – | – | – | – | CDK2 % Inhibition at 0.03 μM (CDK2/Cyclin A; 0.03 μM compound, Table 3): −16%; CDK4 % Inhibition at 0.03 μM ([1]; 0.03 μM compound, Table 3): 15%; HCT-116 % Inhibition at 0.1 μM (HCT-116 cell line; [2]): 14%; HCT-116 % Inhibition at 0.25 μM (HCT-116 cell line; HCT-116, Table 3): 30%
15 | CN(C)CCSc1ccc(S(=O)(=O)N2CCC(Nc3nc(N)c(C(=O)c4c(F)cccc4F)s3)CC2)cn1 [Example L1, 1-(4-Amino-2-{1-[6-(2-dimethylamino-ethylsulfanyl)-pyridine-3-sulfonyl]-piperidin-4-ylamino}-thiazol-5-yl)-1-(2,6-difluoro-phenyl)-methanone Dihydrochloride.] | – | – | 0.00062 | 0.0003 | 0.078 | > 0.5 | – | – | –
16 | CN1CCC(C(=O)N2CCC(Nc3nc(N)c(C(=O)c4c(F)cccc4F)s3)CC2)CC1 [Example D1, 1-(4-Amino-2-{1-[1-(1-methyl-piperidin-4-yl)-methanoyl]-piperidin-4-ylamino}-thiazol-5-yl)-1-(2,6-difluoro-phenyl)-methanone] | – | – | 0.46 | 0.13 | > 5 | – | – | – | –
17 | Nc1nc(NC2CCN(S(=O)(=O)c3ccc(CCCN4CCCCC4)nc3)CC2)sc1C(=O)c1c(F)cccc1F [Example I14, 1-(4-Amino-2-{1-[6-(3-piperidin-1-yl-propyl)-pyridine-3-sulfonyl]-piperidin-4-ylamino}-thiazol-5-yl)-1-(2,6-difluoro-phenyl)-methanone Trifluoroacetic Acid Salt] | – | – | 0.0012 | 0.00057 | 0.14 | 0.3 | – | – | –
18 | COC(=O)c1sccc1S(=O)(=O)N1CCC(Nc2nc(N)c(C(=O)c3c(F)cccc3F)s2)CC1 [Example F10, 3-{4-[4-Amino-5-(2,6-difluoro-benzoyl)-thiazol-2-ylamino]-piperidine-1-sulfonyl}-thiophene-2-carboxylic acid methyl ester] | – | – | 0.0079 | 0.0056 | 0.28 | < 5 | – | – | –
19 | Nc1nc(NC2CCN(C(=O)c3ccno3)CC2)sc1C(=O)c1c(F)cccc1F [Example C10, 1-{4-Amino-2-[1-(1-isoxazol-5-yl-methanoyl)-piperidin-4-ylamino]-thiazol-5-yl}1-(2,6-difluoro-phenyl)-methanone] | – | – | 0.039 | 0.022 | 0.75 | 2.1 | – | – | –
20 | COC(=O)NC(=O)N1CCC(Nc2nc(N)c(C(=O)c3c(F)cccc3F)s2)CC1 [Example O61] | – | – | – | – | – | – | – | – | CDK2 % Inhibition At 0.03 μM (CDK2/Cyclin A; 0.03 μM compound): 33%; CDK4 % Inhibition at 0.03 μM ([1]; 0.03 μM compound, Table 2): 12%; HCT-116 % Inhibition at 0.25 μM (HCT-116 cell line; HCT-116, Table 2): 38%
21 | CC(=O)c1cccc(NC(=O)N2CCC(Nc3nc(N)c(C(=O)c4c(F)cccc4F)s3)CC2)c1 [Example O47] | – | – | – | – | – | – | – | – | CDK2 % Inhibition At 0.03 μM (CDK2/Cyclin A; 0.03 μM compound): 35%; CDK4 % Inhibition at 0.03 μM ([1]; 0.03 μM compound, Table 2): 14%; HCT-116 % Inhibition at 0.25 μM (HCT-116 cell line; HCT-116, Table 2): 35%
22 | Cn1cncc1-c1ccc(S(=O)(=O)N2CCC(Nc3nc(N)c(C(=O)c4c(F)cccc4F)s3)CC2)cc1 [Example F32, 1-(4-Amino-2-{1-[4-(3-methyl-3H-imidazol-4-yl)-benzenesulfonyl]-piperidin-4-ylamino}-thiazol-5-yl)-1-(2,6-difluoro-phenyl)-methanone Trifluoroacetic Acid Salt] | – | – | 0.0004 | 0.0009 | 0.11 | 0.38 | – | – | –
23 | Cn1ccnc1SCCCS(=O)(=O)N1CCC(Nc2nc(N)c(C(=O)c3c(F)cccc3F)s2)CC1 [Example K22, 1-(4-Amino-2-{1-[3-(1-methyl-1H-imidazol-2-ylsulfanyl)-propane-1-sulfonyl]-piperidin-4-ylamino}-thiazol-5-yl)-1-(2,6-difluoro-phenyl)-methanone.] | – | – | 0.0048 | 0.0073 | > 0.5 | > 0.5 | – | – | –
24 | COC(=O)[C@H](Cc1ccccc1)NC(=O)N1CCC(Nc2nc(N)c(C(=O)c3c(F)cccc3F)s2)CC1 [Example O78] | – | – | – | – | – | – | – | – | CDK2 % Inhibition At 0.03 μM (CDK2/Cyclin A; 0.03 μM compound): 25%; CDK4 % Inhibition at 0.03 μM ([1]; 0.03 μM compound, Table 2): 14%; HCT-116 % Inhibition at 0.25 μM (HCT-116 cell line; HCT-116, Table 2): 47%
25 | Nc1nc(NC2CCN(S(=O)(=O)c3ccc(C4=NCCO4)cc3)CC2)sc1C(=O)c1c(F)cccc1F [Example J5, 1-(4-Amino-2-{1-[4-(4,5-dihydro-oxazol-2-yl)-benzenesulfonyl]-piperidin-4-ylamino}-thiazol-5-yl)-1-(2,6-difluoro-phenyl)-methanone] | – | – | 0.0028 | 0.0039 | 0.21 | 0.48 | – | – | –
26 | CN1CCC[C@H]1COc1ccc(S(=O)(=O)N2CCC(Nc3nc(N)c(C(=O)c4c(F)cccc4F)s3)CC2)cn1 [Example H12, 1-(4-Amino-2-{1-[6-(1-methyl-pyrrolidin-2S-ylmethoxy)-pyridine-3-sulfonyl]-piperidin-4-ylamino}-thiazol-5-yl)-1-(2,6-difluoro-phenyl)-methanone] | – | – | 0.00088 | 0.00039 | 0.058 | 0.4 | – | – | –
27 | Nc1nc(NC2CCN(S(=O)(=O)c3cnc(Cl)nc3)CC2)sc1C(=O)c1c(F)cccc1F [Example F47] | – | – | 0.00027 | 0.00069 | 0.9 | 2.3 | – | – | –
